This note sets out measurements from patent US20110104289A1, “METHOD AND PHARMACEUTICAL COMPOSITION FOR OBTAINING THE PLASMATIC PROGESTERONE LEVELS REQUIRED FOR DIFFERENT THERAPEUTIC INDICATIONS” (POSI VISIONARY SOLUTIONS LLP, priority 2008, published 2011).

The data set can be described thus: Progesterone plasma levels after intramuscular-type injection of injectable aqueous suspension of progesterone particles. The data set is classed as in vivo, post-menopausal women. Conditions: female, human, humans, across the dosing schemes (100-300 mg, single or repeated injection), read-out: maximum plasma concentrations (Cmax). How it is done:
12 post-menopausal women were administered with a 100 mg single injection of progesterone spherical microparticles, in the form of an injectable aqueous suspension. Obtained plasma levels are illustrated in FIG. 1, wherein progesterone plasma concentrations are observed to be maintained up to 7 days in suitable levels for several therapies requiring said progesterone concentrations. 12 post-menopausal women were administered with a single 200 mg injection of progesterone spherical microparticles in the form of an injectable aqueous suspension. Obtained plasma levels are illustrated in FIG. 2, wherein progesterone plasma concentrations are observed to be maintained up to 7 days in suitable levels for several therapies requiring said progesterone concentrations and described in page 2. Four 200 mg repeated injections of progesterone spherical microparticles were administered in the form of an injectable aqueous suspension to 15 post-menopausal women. Obtained plasma levels are illustrated in FIG. 3, wherein progesterone plasma concentrations are observed to be maintained up to 7 days in suitable levels for several therapies requiring said progesterone concentrations and described in page 2. Four 300 mg repeated injections of progesterone spherical microparticles were administered in the form of an injectable aqueous suspension to 13 post-menopausal women. […]

For the compound `CC(=O)[C@H]1CC[C@H]2[C@@H]3CCC4=CC(=O)CC[C@]4(C)[C@H]3CC[C@]12C` [progesterone], the Cmax was 12 to 42 ng/mL.
